From ChEMBL document CHEMBL2384907, “Identification of substituted pyrimido[5,4-b]indoles as selective Toll-like receptor 4 ligands” (J Med Chem, 2013)
Calls of active or inactive are those of the source. The calls are words filed in the database; no cut-off is given here.

Key:
Assay type in all cases: cell-based
[1] = biological target: T1, Toll-like receptor 4 (Mus musculus) (UniProt Q9QUK6); experiment: Activation of TLR4 in C57BL/6 mouse BMDC cells assessed as AUC of IP10 release at 5 uM after 18 hrs by ELISA relative to N-cyclohexyl-2-(4-oxo-3-phenyl-4,5-dihydro-3H-pyrimido[5,4-b]indol-2-ylthio)acetamide
T1 sequence (whole entry): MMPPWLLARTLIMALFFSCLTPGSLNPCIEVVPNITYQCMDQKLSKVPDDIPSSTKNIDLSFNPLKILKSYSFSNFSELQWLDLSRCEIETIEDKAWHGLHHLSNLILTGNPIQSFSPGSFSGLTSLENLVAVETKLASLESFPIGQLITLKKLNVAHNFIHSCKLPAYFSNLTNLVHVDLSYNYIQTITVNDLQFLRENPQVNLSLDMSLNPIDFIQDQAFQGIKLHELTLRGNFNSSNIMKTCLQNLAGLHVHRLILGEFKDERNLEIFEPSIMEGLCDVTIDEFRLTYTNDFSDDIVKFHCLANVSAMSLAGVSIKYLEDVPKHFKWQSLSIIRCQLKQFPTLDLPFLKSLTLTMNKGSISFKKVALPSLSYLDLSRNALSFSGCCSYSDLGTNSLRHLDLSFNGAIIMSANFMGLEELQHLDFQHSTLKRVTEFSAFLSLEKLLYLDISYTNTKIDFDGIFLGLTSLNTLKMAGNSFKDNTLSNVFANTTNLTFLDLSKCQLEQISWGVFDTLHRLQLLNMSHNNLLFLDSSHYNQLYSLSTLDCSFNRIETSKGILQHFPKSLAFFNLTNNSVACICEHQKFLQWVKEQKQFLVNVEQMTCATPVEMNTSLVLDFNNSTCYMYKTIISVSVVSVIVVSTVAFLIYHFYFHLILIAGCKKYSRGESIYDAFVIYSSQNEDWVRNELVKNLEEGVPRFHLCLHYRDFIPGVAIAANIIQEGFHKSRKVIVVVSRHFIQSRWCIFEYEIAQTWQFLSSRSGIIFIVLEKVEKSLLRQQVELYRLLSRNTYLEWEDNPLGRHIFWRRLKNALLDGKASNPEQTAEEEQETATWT

[2] = biological target: Toll-like receptor 3 (Homo sapiens) (UniProt O15455); experiment: Activation of human TLR3 transfected in HEK293 cells at 10 uM after 20 to 24 hrs by SEAP assay
[3] = biological target: T2, Toll-like receptor 8 (Homo sapiens) (UniProt Q9NR97); experiment: Activation of human TLR8 transfected in HEK293 cells at 10 uM after 20 to 24 hrs by SEAP assay
T2 sequence (whole entry): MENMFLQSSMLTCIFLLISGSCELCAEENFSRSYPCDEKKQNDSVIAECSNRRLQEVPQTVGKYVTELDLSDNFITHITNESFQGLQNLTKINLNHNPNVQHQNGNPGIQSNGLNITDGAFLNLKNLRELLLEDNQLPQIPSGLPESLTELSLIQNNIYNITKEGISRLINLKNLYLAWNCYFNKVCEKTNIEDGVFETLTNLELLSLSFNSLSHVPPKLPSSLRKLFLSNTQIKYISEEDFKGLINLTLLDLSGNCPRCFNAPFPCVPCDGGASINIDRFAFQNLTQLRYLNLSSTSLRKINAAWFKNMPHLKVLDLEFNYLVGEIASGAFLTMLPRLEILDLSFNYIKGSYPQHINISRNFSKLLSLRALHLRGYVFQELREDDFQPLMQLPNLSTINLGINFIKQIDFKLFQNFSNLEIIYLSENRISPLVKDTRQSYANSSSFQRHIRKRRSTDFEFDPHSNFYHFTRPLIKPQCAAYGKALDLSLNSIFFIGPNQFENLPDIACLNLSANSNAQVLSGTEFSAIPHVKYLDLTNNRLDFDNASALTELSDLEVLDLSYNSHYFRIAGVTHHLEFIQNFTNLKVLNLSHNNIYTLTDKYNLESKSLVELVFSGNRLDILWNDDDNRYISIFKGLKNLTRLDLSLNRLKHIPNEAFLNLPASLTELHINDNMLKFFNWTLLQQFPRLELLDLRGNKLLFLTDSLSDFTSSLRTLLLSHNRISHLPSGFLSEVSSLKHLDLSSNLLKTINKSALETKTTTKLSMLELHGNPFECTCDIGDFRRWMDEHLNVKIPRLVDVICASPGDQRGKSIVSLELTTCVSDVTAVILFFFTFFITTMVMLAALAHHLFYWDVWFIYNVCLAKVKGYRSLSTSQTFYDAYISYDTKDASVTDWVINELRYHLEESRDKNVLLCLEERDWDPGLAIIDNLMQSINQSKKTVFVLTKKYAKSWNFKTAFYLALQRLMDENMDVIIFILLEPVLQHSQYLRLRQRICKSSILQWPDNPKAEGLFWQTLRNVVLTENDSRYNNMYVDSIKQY

Sequence of Toll-like receptor 3 (Homo sapiens) (O15455 whole entry): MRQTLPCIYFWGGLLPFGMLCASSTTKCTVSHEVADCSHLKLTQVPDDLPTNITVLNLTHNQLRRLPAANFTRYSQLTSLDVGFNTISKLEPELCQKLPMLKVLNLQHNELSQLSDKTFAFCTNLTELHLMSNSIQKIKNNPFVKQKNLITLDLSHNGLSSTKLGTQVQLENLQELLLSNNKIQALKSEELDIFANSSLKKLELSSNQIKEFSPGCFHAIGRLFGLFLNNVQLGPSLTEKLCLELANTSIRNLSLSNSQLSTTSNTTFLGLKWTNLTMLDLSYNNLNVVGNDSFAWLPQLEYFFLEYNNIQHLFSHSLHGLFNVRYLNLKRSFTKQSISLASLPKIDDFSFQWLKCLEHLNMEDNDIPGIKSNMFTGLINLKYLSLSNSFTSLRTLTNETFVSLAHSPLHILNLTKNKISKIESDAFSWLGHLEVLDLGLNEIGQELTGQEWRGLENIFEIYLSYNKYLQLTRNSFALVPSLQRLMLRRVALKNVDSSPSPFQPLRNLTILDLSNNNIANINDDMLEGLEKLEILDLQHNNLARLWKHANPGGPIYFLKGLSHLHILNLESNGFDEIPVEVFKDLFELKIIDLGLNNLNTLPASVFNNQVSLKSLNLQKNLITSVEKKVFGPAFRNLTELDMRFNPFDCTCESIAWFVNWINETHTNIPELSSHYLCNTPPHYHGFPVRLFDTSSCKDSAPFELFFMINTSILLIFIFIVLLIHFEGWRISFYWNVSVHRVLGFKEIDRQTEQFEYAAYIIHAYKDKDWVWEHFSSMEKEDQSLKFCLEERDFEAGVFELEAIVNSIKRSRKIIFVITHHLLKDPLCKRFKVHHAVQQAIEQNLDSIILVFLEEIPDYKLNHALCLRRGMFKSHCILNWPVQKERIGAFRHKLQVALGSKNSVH

In the case of `O=C(CSc1nc2c([nH]c3ccccc32)c(=O)n1-c1ccccc1)NC1CCCCC1`, the Activity [1] is reported as 100%, the Activity [2] is reported as “inactive” and the Activity [3] is reported as “inactive”.
